This series in a line: gradient 5% acetonitrile 3 min, to 50% in 2 min, to 85% in 15 min, held 3 min, 100 µL/min. The following applies: column: Zorbax Extend-C18 2.1 x 50 mm; eluents: water / acetonitrile, 0.1% formic acid. An outline of the steps: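 Retention time was recorded from adduct peaks, which were picked computationally and each inspected manually. Pure standards ran in mixtures of ~100 molecules on HPLC coupled to a quadrupole time-of-flight mass spectrometer, in positive and negative ionization mode, through a Zorbax Extend-C18 column (2.1 × 50 mm, 1.8 μm) at 100 μL/min. Eluents were water and acetonitrile, each with 0.1% formic acid.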
Compound `COc1ccc(CN2CCc3nc(N4CCN(c5ncccn5)CC4)ncc3C2)cc1` displayed an RP-LC retention time of 584 s. In turn, `Cc1c(NC(=O)Cc2csc(NC(=O)C(C)(C)C)n2)c(=O)n(-c2ccccc2)n1C` gave an RP-LC retention time of 630 s.

As to `CC(C)CCNC(=O)c1nnc(-c2ccc(S(=O)(=O)N3CCCCC3)cc2)o1`, the RP-LC retention time was found to be 1030 s.

With `CCC(=O)N1CCc2cc(N3CC(C(=O)NCc4cccnc4)CC3=O)ccc21` (stereo not given), the RP-LC retention time was determined as 579 s. Next, `N#Cc1ccc(C(=O)Nc2cccnc2N2CCCC2)cc1`: 583 s; `CN(C)c1cccc(C(=O)N2CCC3(CC2)N=C(c2ccccc2)NO3)c1`: 717 s. Next, `COc1ccc(Br)c(C(=O)Nc2nnc(Cc3ccc(F)cc3)o2)c1`: 774 s; `CC(C)CCN1CCC(N2CCN(S(=O)(=O)Cc3ccc(F)cc3Cl)CC2)C1=O` (stereo not given): 682 s; `Cc1cc(N2CCOCC2)n2nc(CN3CCN(c4ccccc4)CC3)nc2n1`: 588 s. Take `O=C(c1cc2ccccc2[nH]1)N1CCN(C(=O)c2ccc(Br)o2)CC1`: the RP-LC retention time is 797 s. Take `CCOC(=O)N1CCN(c2ncc(S(=O)(=O)c3ccc(C(C)C)cc3)c(N)n2)CC1`: the RP-LC retention time came out at 1030 s.

`COc1cccc(N2CCN(c3ccnc(SCC(=O)Nc4cc(OC)ccc4OC)n3)CC2)c1` showed an RP-LC retention time of 818 s. In turn, `Cc1ccc(NC(=O)c2cc(C)n3nc(C)cc3n2)cc1` gave an RP-LC retention time of 994 s. Next, `COc1nn(C)cc1C(=O)Nc1nnc(-c2sc(C)nc2C)o1`: 598 s; `CSc1ccc(Cl)c(-c2nc(-c3ccc4oc(C)nc4c3)no2)c1`: 1260 s.

`CCC1(C(=O)Nc2ccc(OC)cc2)CCCCC(=O)N1` (stereo not given) came in with an RP-LC retention time of 666 s. Turning to `COCC(=O)NC1CCC12CCN(C(=O)CCC1CCCC1)CC2` (stereo not given), the RP-LC retention time was found to be 735 s. Next, `COC(=O)c1nnn(-c2ccc(C(C)C)cc2)c1C(=O)OC`: 996 s; `CC(=O)N1CC[C@]2(CO)CN(C(=O)c3ccoc3C)C[C@@H]2C1`: 583 s.

As for `COc1ccc(-c2nc3cc(C)ccn3c2NC(=O)c2ccc(Cl)cc2Cl)cc1`, the RP-LC retention time amounted to 753 s. Next, `CCOC(=O)C1CCCN(Cc2cn3cc(F)ccc3n2)C1` (stereo not given): 559 s. Consider `CCCCN(CCCNc1nc(C(=O)OCC)nc2ccccc12)c1ccccc1`, for which the RP-LC retention time was 732 s. Next, `CCOCCCNC(=O)c1nc(Nc2ccc(F)cc2)c2ccccc2n1`: 746 s; `COc1ccc(-c2cc(C(F)(F)F)n3ncc(C(=O)NCc4cn(C)nc4C)c3n2)cc1OC`: 780 s.

Regarding `CCOC(=O)Cc1ccc(NC(=O)N2CCN(c3nc4ccccc4n3C)CC2)cc1`, the RP-LC retention time is 656 s.

`OCCN(Cc1ccccc1)CC(O)COc1ccc(Cl)cc1Cl` (stereo not given): the RP-LC retention time is 602 s.

`COc1ccc(Cl)cc1Nc1ccnc2c1c(=O)n(C)c(=O)n2C` displayed an RP-LC retention time of 951 s. As to `CCc1ccc(Oc2cc(N3CCC(C(=O)Nc4ccc(C)c(C)c4)CC3)ncn2)cc1`, the RP-LC retention time was determined as 1160 s. Next, `Cc1ccc2c(c1)N(S(C)(=O)=O)CCC(C(=O)Nc1c(C)cccc1C)O2` (stereo not given): 930 s; `CCn1cc(C2=CCN(C(=O)NCc3cccc(F)c3)CC2)c2cccnc21`: 850 s; `CCN(CC)C(=O)c1cc2c(s1)CCC(C(=O)Nc1ccc3c(c1)OCO3)C2` (stereo not given): 860 s. In turn, `CCN1C(=O)c2cccnc2Sc2cc(NC(=O)COc3ccccc3C)ccc21` had an RP-LC retention time of 860 s.

As for `CCN1C(=O)c2cccnc2Sc2cc(C(=O)N3CCCCC3)ccc21`, the RP-LC retention time is 730 s.

In the case of `Cc1cccc(-c2nnc(-c3nc(NCCc4cnc[nH]4)c4ccccc4n3)o2)c1`, the RP-LC retention time is 672 s. Take `COc1ccc(C(=O)N2CCC3(CC2)N=C(c2cccc(Br)c2)NO3)cc1F`: the RP-LC retention time was found to be 901 s. `C=CCN1C(=O)COc2ccc(-c3csc(NC(=O)c4ccc(OC)c(OC)c4)n3)cc21` came in with an RP-LC retention time of 943 s. As for `Cc1cc(N(CCO)Cc2ccccc2)n2nc(-c3ccccc3C)nc2n1`, the RP-LC retention time amounted to 786 s. `O=c1cc(CSc2nnc(-c3ccccc3F)o2)nc2sccn12` came in with an RP-LC retention time of 745 s.

Compound `Cc1occc1-c1nnc2sc(COc3ccc(Cl)cc3)nn12` gave an RP-LC retention time of 1000 s.

`COCCOC1CCN(S(=O)(=O)c2cccc(OC)c2)CC1` came in with an RP-LC retention time of 811 s. Next, `COc1ccc(NC(=O)c2cn(-c3cc(N4CCCC4)ncn3)cn2)cc1OC`: 748 s; `Cc1ccc(-c2cc(C(=O)NCCCN3CCc4ccccc4C3)c(C)[nH]2)cc1C`: 751 s. Regarding `CCc1ccc(NC(=O)N2CCC(n3cnc4ccc(C)cc4c3=O)CC2)cc1`, the RP-LC retention time came out at 838 s. Next, `O=C(CCn1cnc2cc(-c3noc(CCc4c[nH]c5ccccc45)n3)ccc21)N1CCCC1`: 734 s; `CCOc1ccc(-c2ccc(OCCNS(=O)(=O)c3ccccc3Cl)nn2)cc1`: 891 s.

Regarding `CN(C)c1ccc(-c2nc3ncc(Cl)c(N4CCN(CC(=O)Nc5nccs5)CC4)c3[nH]2)cc1`, the RP-LC retention time amounted to 704 s.

The compound `CN1CCN(c2cccc(Nc3nc4c(-c5ccc(S(C)(=O)=O)cc5)cccn4n3)c2)CC1` showed an RP-LC retention time of 675 s.

For `Cc1ccc(N2CCC(NC(=O)C(C)(C)C)C2=O)cc1C` (stereo not given), the RP-LC retention time was 802 s. In the case of `Cc1ccc(-c2nnc(C)c(NC3CC3)n2)cc1`, the RP-LC retention time was 644 s. Take `Cc1cccc(NC(=O)CN2C(=O)C3CCCCN3c3ccc(C(=O)N4CCCC4)cc32)c1` (stereo not given): the RP-LC retention time is 853 s.

For `Cc1nc(-c2ccc(NC(=O)N3CCN(c4ccccn4)CC3)cc2)no1`, the RP-LC retention time came out at 588 s. As for `O=C(CC1CCCC1)NCCC1CCN(C(=O)Nc2ccccc2)CC1`, the RP-LC retention time is 784 s. `O=C(Nc1cnc(N2CCCCCC2)nc1)c1cc(F)ccc1F` yielded an RP-LC retention time of 967 s.

As to `Cn1nc(CNC(=O)c2ccc(F)c(F)c2)c2ccccc21`, the RP-LC retention time was found to be 813 s. Next, `Cc1ccc(CC(=O)N2CCC3(C2)C(=O)N(C)c2ccccc23)cc1` (stereo not given): 850 s. Next, `COC(=O)c1cccc(NS(=O)(=O)c2cn(CC(C)C)c3ncccc23)c1`: 913 s.

`COc1ccc(C)cc1NC(=O)c1cn2c(n1)CSCC2`: the RP-LC retention time was found to be 841 s.

In turn, `CCC(=O)N1CCc2cc(N3CC(C(=O)Nc4ccc(C)cc4Cl)CC3=O)ccc21` (stereo not given) yielded an RP-LC retention time of 789 s. For the compound `CCN(CC)CCCNS(=O)(=O)c1cc(-c2cc(C)no2)cs1`, the RP-LC retention time came to 619 s. Compound `CCCN1CCN(c2ncc3c(n2)CCN(Cc2ccccc2OCC)C3)CC1` had an RP-LC retention time of 565 s. The compound `Cc1ccc(CNC(=O)CN2C(=O)CCCc3cc(S(=O)(=O)N4CCCC4)ccc32)cc1` had an RP-LC retention time of 824 s. Next, `COCC(=O)N1CCCCC1c1nncn1Cc1ccccc1` (stereo not given): 612 s; `O=C(c1cc(=O)c2ccccc2o1)N1CCC(c2nnc(-c3ccc(F)cc3)o2)CC1`: 746 s; `CC1CCCC(C)N1CCCNC(=O)Cn1ncc2c3ccccc3n(C)c2c1=O` (stereo not given): 632 s. Next, `Cc1nccn1-c1ccc(=O)n(CCNC(=O)c2cccc(C(F)(F)F)c2)n1`: 551 s; `COc1ccccc1CNC(=O)CN1CCN(Cc2ccc(F)cc2Cl)C1=O`: 858 s; `CC[C@H](Nc1ncnc2nc[nH]c12)c1nc2cccc(F)c2c(=O)n1-c1ccccc1`: 714 s. Next, `CCS(=O)(=O)c1nc2ccc(NS(=O)(=O)c3ccc(OC)c(Cl)c3)cc2s1`: 907 s. `O=c1c(NCC2CCCCC2)nc2ccncc2n1Cc1ccccc1` showed an RP-LC retention time of 784 s. Next, `Cc1nn2c(CNS(=O)(=O)c3ccc(Cl)cc3C)c(-c3ccccc3)nc2s1`: 973 s; `Cc1cc(-c2nnc(-c3ccccc3)o2)c(C)n1CC(=O)NCc1ccco1`: 826 s. Next, `CCN(CC)CCCNC(=O)c1cn(C)nc1S(=O)(=O)N1CCN(c2ccc(Cl)cc2)CC1`: 729 s; `COc1cccc(Cn2cccc(S(=O)(=O)N3CCC(C)CC3)c2=O)c1`: 954 s. Consider `CC1(C(=O)NC2CCCCCCC2)CN(S(C)(=O)=O)CC(=O)N1Cc1ccc(F)cc1` (stereo not given), for which the RP-LC retention time amounted to 740 s. On to `Cc1nn(C)c(C)c1CCCN(C)C(=O)c1cc2c(s1)N(C)CCCC2`, for which the RP-LC retention time was 770 s. Next, `COc1ccc(CNC(=O)N2CCC(N3CCN(Cc4ccccc4)C(=O)C3=O)CC2)cc1`: 702 s; `Cc1noc(C)c1-c1ccc(S(=O)(=O)Nc2ccc(C(F)(F)F)cc2)cc1`: 1020 s. `COc1ncccc1C(=O)NCCCn1nc(-c2ccc(F)cc2)ccc1=O` registered an RP-LC retention time of 734 s. Next, `CCOc1ccc(Nc2c(-c3cccc(O)c3)nc3cnccn23)cc1`: 746 s; `CCc1ccc(C(=O)c2cnc3ccc(OC)cc3c2N2CCN(C)CC2)cc1`: 614 s.

(Values after the METLIN SMRT retention time set (Domingo-Almenara et al. 2019).)
